Assay type in all cases: physicochemical
The nature of series [1]: Yellowing (ASTM D 1925) after UV exposure in Weather-Ometer WRC 600, ABS/SAN/polycarbonate blend (Example 2). To be noted: Weather-Ometer WRC 600, 2 mm plates. Here is the method: (§1) Beispiel 2: Das ABS-Copolymer gemäss Beispiel 1 wird in Pulverform mit derselben Menge von Styrolacrylnitril-Copolymer (Suspension SAN, Kostil, Montedipe), mit gegebenenfalls weiteren Additiven, wie z.B. einem UV-Absorber (Tinuvin® 234, Ciba-Geigy AG) und einem Phosphit (Irgafos® 168, Ciba-Geigy AG), in einem Rhönrad vermischt. Die Mischung wird in einem Zweischnecken-Extruder (Temperatur-Zyklus : 210°C/ 210°C/ 215°C/ 220°C) verarbeitet und granuliert.
(§2) Das erhaltene ABS-Granulat wird mit derselben Menge von Polycarbonat-Granulat (PC Calibre®, Dow) vermischt. Das Polymerblend wird in einem Zweischnecken-Extruder (Temperatur Zyklus : 240°C/ 240°C/ 250°C) hergestellt.
Die erhaltenen Mischungen (Blends) werden in einer Heizpresse bei 200°C zu 2 mm starken Platten gepresst. Aus den Platten werden Prüfkörper von 40 x 40 x 2 mm ausgeschnitten. Diese Plättchen werden in einem Weather-Ometer® WRC 600 mit UV-Licht belichtet. In regelmässigen Abständen werden Proben entnommen und deren Vergilbung (oder Yellowness Index) gemäss Methode ASTM D 1925 gemessen.
Die mit der Belichtungszeit einhergehende Vergilbung is in der Tabelle 2 wiedergegeben.

Series [2] is described as follows: Impact bending strength (ASTM D 4508-85) after UV exposure in Xenotest 450, ABS/SAN/polycarbonate blend (Example 2). To be noted: energy required to break. Further details: key to Schlagbiegefestigkeit in kJ/m^2 nach 200 Stunden in Xenotest 450: KB = Kein Bruch. As to the method: as §1, §2
Weitere Prüfkörper von 12,7 x 60,0 x 2,0 mm werden in einem Xenotest 450 mit UV-Licht belichtet. In regelmässigen Abständern werden Proben entnommen und deren Schlagbiegefestigkeit gemäss Methode ASTM D 4508-85 gemessen. Dabei erfolgt der Pendelschlag auf die belichtete Seite der Probe.
In Tabelle 3 ist die für den Bruch der Probe erforderliche Energie angegeben. Je höher dieser Wert ist, desto höher ist die Schlagbiegefestigkeit der Probe. Bei ungeschädigten Proben erfolgt kein Bruch.

Series [3] in a line: Yellowing (ASTM D 1925) after oven ageing, ABS/PBT blend (Example 3). Here is the method:
Beispiel 3: Das ABS-Copolymer Granulat gemäss Beispiel 2 wird mit derselben Menge Polybutylenterephtahlat, (PBT CRASTIN® S 600, Ciba-Geigy) vermischt. Das Polymerblend wird in einem Zweischnecken-Extruder (Temperatur-Zyklus: 210°C/230°C/ 235°C/ 240°C) hergestellt. Proben von 12,7 x 60,0 x 2,0 mm werden in einer Arburg-Spritzgussanlage gespritzt bei einer maximalen Verarbeitungstemperatur von 260°C. Diese Plättchen werden in einem Ofen bei 200°C und bei 160°C gealtert. In regelmässigen Abständen werden die Proben entnommen und deren Vergilbung gemäss ASTM D 1925 gemessen.

Series [4] can be described thus: Yellowing (ASTM D 1925) after UV exposure in Weather-O-meter WRC 600, ABS/SAN/polycarbonate blend (Example 1). To be noted: Weather-O-meter WRC 600, 2 mm plates. As to the method:
Dieses Copolymer wird in Pulverform mit derselben Menge von Styrolacrylnitril-copolymer (Suspension SAN, Ube Cycon) und der doppelten Menge von pulverförmigem Polycarbonat (PC 135, General Electric), mit gegebenenfalls weiteren Additiven, wie z.B. einem UV-Absorber, in einem Rhönrad vermischt. Die Mischung wird in einem Zweischnecken-Extruder (Temperatur-Zyklus: 165°C, 250°C, 275°C, 275°C, 270°C; Umdrehungen/Minute: 45) hergestellt.
Die erhaltenen Mischungen werden in einer Heizpresse bei 200°C zu 2 mm starken Platten gepresst. Aus den Platten werden Prüfkörper von 40 x 40 x 2 mm ausgeschnitten. Diese werden in einem Weather-O-meter® WRC 600 mit UV-Licht belichtet. In regelmässigen Abständen werden Proben entnommen und deren Vergilbung gemäss ASTM D 1925 gemessen.
Die mit der Belichtungszeit einhergehende Vergilbung, ausgedrückt in ΔYI (YI = Yellowness Index; ΔYI = Unterschied in YI-Wert zwischen unbelichteter und entsprechender belichteter Probe) und nach der angegebenen Methode ermittelt, ist in der Tabelle 1 wiedergegeben.

Take `CC(C)(c1ccccc1)c1cc(-n2nc3ccccc3n2)c(O)c(C(C)(C)c2ccccc2)c1` [0,50 % TINUVIN® 234]: the “Δ YI nach Belichtungszeit von 500 h” value in series [1] (500 h UV) was -7. Further, in series [1] (1000 h UV), the “Δ YI nach Belichtungszeit von 1000 h” value is 1,1. Besides, the “Δ (YI) nach Belichtungszeit von 2000 h” value in series [1] (2000 h UV) was 16,1. Moreover, the “Δ (YI) nach Belichtungszeit von 3000 h” value in series [1] (3000 h UV) is 23,4. In series [1] (4000 h UV), the “Δ (YI) nach Belichtungszeit von 4000 h” value is recorded as 23,9. Moreover, the “Schlagbiegefestigkeit in kJ/m^2 nach 200 Stunden in Xenotest 450” value in series [2] (200 h Xenotest 450) is listed as “KB”. In addition, the “Schlagbiegefestigkeit in kJ/m^2 nach 300 Stunden in Xenotest 450” value in series [2] (300 h Xenotest 450) was found to be 15±2 kJ/m^2. In series [2] (500 h Xenotest 450), the “Schlagbiegefestigkeit in kJ/m^2 nach 500 Stunden in Xenotest 450” value came to 13±1 kJ/m^2. Moreover, the “Schlagbiegefestigkeit in kJ/m^2 nach 1000 Stunden in Xenotest 450” value in series [2] (1000 h Xenotest 450) is 11±1 kJ/m^2. Moreover, the “Schlagbiegefestigkeit in kJ/m^2 nach 1500 Stunden in Xenotest 450” value in series [2] (1500 h Xenotest 450) is given as 11±1 kJ/m^2. Also, the “Δ YI nach Ofenalterung bei 160°C nach 60 min” value in series [3] (oven 160°C, 60 min) was 4,7. Also, the “Δ YI nach Ofenalterung bei 160°C nach 90 min” value in series [3] (oven 160°C, 90 min) is on record as 10,8. In addition, in series [3] (oven 160°C, 120 min), the “Δ YI nach Ofenalterung bei 160°C nach 120 min” value is listed as 11,6. In series [3] (oven 160°C, 160 min), the “Δ YI nach Ofenalterung bei 160°C nach 160 min” value is 20,4. Also, in series [3] (oven 160°C, 840 min), the “Δ YI nach Ofenalterung bei 160°C nach 840 min” value is reported as 56,3. Also, the “Δ YI nach Ofenalterung bei 200°C nach 10 min” value in series [3] (oven 200°C, 10 min) is on record as 6,0. The “Δ YI nach Ofenalterung bei 200°C nach 20 min” value in series [3] (oven 200°C, 20 min) was 16,4. Further, in series [3] (oven 200°C, 40 min), the “Δ YI nach Ofenalterung bei 200°C nach 40 min” value is listed as 33,1. Moreover, the “Δ YI nach Ofenalterung bei 200°C nach 60 min” value in series [3] (oven 200°C, 60 min) is on record as 43,9. Further, in series [3] (oven 200°C, 90 min), the “Δ YI nach Ofenalterung bei 200°C nach 90 min” value is recorded as 55,3.

`CC(C)(c1ccccc1)c1cc(-n2nc3ccccc3n2)c(O)c(C(C)(C)c2ccccc2)c1` [0,3 % UV- Absorber *]: in series [4] (250 h UV), the “Δ YI nach Belichtungszeit von 250 h” value was -7,0. Besides, the “Δ YI nach Belichtungszeit von 500 h” value in series [4] (500 h UV) is given as -3,0. For the same molecule, the “Δ YI nach Belichtungszeit von 1000 h” value in series [4] (1000 h UV) was 7,5. The “Δ YI nach Belichtungszeit von 1250 h” value in series [4] (1250 h UV) was 12,1. In addition, the “Δ YI nach Belichtungszeit von 1500 h” value in series [4] (1500 h UV) is recorded as 14,9.

Source of the values: patent EP0499581B1, “Stabilized polymer composition” (Ciba Specialty Chemicals Holding Inc., priority 1991, dated 1992).
